In ChEMBL document CHEMBL1143093 (Bioorg Med Chem Lett, 2008):

Key:
[1] = target: Sodium-dependent noradrenaline transporter (Homo sapiens, UniProt P23975); experiment: Inhibition of norepinephrine uptake at human NET expressed in HEK293 cells; format: cell-based
[2] = target: Sodium-dependent dopamine transporter (Homo sapiens, UniProt Q01959); experiment: Inhibition of dopamine uptake at human DAT expressed in HEK293 cells; format: cell-based
[3] = target: Sodium-dependent serotonin transporter (Homo sapiens, UniProt P31645)
Description: Inhibition of serotonin uptake at human SERT expressed in HEK293 cells

[4] = Metabolic stability in human liver microsomes assessed as systemic clearance; format: ADME, Microsome
[5] = Metabolic stability in rat liver microsomes assessed as systemic clearance; format: ADME, Microsome
[6] = Apparent permeability across human Caco-2 cells; format: ADME, cell-based
[7] = Cmax in rat at 10 mg/kg, po; format: ADME, organism-based; parameters: dose 10 mg/kg, route oral; conditions: in vivo
[8] = Tmax in rat at 10 mg/kg, po; format: ADME, organism-based; parameters: dose 10 mg/kg, route oral; conditions: in vivo
[9] = AUC in rat at 10 mg/kg, po; format: ADME, organism-based; parameters: dose 10 mg/kg, route oral; conditions: plasma
[10] = Drug level in rat brain at 10 mg/kg, po at 1 hr; format: ADME, organism-based; parameters: dose 10 mg/kg, route oral; conditions: read-out: Drug uptake
[11] = Drug level in rat brain at 10 mg/kg, po at 4 hrs; format: ADME, organism-based; parameters: dose 10 mg/kg, route oral; conditions: read-out: Drug uptake
[12] = Ratio of drug level in brain to plasma in rat at 10 mg/kg, po after 1 hr
[13] = Ratio of drug level in brain to plasma in rat at 10 mg/kg, po after 4 hrs
[14] = Dissociation constant, pKa of the compound; format: physicochemical
[15] = Cmax in rat at 30 mg/kg, po; format: ADME, organism-based; parameters: dose 30 mg/kg, route oral; conditions: in vivo
[16] = Tmax in rat at 30 mg/kg, po; format: ADME, organism-based; parameters: dose 30 mg/kg, route oral; conditions: in vivo
[17] = AUC in rat at 30 mg/kg, po; format: ADME, organism-based; parameters: dose 30 mg/kg, route oral; conditions: plasma
[18] = Drug level in rat brain at 30 mg/kg, po at 1 hr; format: ADME, organism-based; parameters: dose 30 mg/kg, route oral; conditions: read-out: Drug uptake
[19] = Drug level in rat brain at 30 mg/kg, po at 4 hrs; format: ADME, organism-based; parameters: dose 30 mg/kg, route oral; conditions: read-out: Drug uptake
[20] = Ratio of drug level in brain to plasma in rat at 30 mg/kg, po after 1 hr; format: ADME, organism-based; parameters: dose 30 mg/kg, route oral
[21] = Ratio of drug level in brain to plasma in rat at 30 mg/kg, po after 4 hrs; format: ADME, organism-based; parameters: dose 30 mg/kg, route oral
[22] = Lipophilicity, log P of the compound; format: physicochemical; conditions: octanol/water
[23] = Distribution coefficient, log D of the compound; format: physicochemical; conditions: octanol/water

Sodium-dependent serotonin transporter, sequence (P31645 whole entry): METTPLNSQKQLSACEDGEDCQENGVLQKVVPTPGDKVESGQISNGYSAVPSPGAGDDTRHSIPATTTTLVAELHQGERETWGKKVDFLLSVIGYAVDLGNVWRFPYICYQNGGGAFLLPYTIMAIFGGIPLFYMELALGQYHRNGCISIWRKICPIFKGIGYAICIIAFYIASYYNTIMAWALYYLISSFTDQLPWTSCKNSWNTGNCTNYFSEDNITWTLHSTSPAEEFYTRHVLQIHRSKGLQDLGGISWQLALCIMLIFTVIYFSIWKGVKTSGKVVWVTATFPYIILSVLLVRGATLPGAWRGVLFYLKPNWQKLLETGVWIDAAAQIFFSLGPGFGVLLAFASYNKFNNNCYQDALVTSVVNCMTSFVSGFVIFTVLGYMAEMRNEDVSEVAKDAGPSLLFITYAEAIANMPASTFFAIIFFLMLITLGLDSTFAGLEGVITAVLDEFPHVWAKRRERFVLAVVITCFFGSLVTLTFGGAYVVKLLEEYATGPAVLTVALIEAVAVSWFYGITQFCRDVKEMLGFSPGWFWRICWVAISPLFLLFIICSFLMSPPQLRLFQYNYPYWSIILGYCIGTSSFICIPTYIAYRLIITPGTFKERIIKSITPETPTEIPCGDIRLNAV
Sodium-dependent noradrenaline transporter, sequence (P23975 whole entry): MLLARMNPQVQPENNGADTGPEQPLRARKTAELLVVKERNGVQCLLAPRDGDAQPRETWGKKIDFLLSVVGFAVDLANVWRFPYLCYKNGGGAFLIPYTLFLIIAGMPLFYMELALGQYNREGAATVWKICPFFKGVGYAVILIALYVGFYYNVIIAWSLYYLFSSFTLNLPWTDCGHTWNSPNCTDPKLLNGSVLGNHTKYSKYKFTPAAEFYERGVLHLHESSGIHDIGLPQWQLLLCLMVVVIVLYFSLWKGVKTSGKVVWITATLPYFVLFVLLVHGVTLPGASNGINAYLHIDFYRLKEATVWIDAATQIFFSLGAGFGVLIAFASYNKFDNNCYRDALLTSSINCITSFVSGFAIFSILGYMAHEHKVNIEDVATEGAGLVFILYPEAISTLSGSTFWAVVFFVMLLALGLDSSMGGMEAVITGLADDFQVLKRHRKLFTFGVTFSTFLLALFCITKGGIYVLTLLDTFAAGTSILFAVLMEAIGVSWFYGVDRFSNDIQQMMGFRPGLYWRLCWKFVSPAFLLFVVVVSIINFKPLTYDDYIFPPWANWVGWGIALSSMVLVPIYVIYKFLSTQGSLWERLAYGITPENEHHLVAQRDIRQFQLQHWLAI
Sodium-dependent dopamine transporter, sequence (Q01959 whole entry): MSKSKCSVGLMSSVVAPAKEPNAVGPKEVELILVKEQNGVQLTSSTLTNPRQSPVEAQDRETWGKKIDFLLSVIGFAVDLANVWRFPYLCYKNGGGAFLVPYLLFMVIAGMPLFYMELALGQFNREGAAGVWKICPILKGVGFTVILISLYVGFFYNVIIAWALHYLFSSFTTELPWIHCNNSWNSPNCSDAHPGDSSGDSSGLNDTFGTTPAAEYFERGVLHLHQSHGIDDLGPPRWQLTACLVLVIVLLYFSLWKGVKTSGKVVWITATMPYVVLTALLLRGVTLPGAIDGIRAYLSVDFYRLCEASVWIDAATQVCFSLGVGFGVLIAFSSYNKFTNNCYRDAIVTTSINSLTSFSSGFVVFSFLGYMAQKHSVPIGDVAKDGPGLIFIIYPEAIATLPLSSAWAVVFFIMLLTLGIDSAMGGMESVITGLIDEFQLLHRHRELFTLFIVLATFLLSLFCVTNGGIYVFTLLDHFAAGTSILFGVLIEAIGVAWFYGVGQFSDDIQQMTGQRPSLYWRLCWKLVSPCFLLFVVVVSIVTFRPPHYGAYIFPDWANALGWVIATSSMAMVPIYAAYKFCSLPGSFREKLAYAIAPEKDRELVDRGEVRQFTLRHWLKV

Compound: C=CCN(C)C(=O)[C@@]1(c2ccsc2)C[C@H]1CN
- IC50 [1]: 0.1 µM
- IC50 [2]: > 10 µM
- IC50 [3]: 0.06 µM

Compound: NC[C@@H]1C[C@@]1(C(=O)N1C=COc2ccccc21)c1ccsc1
- IC50 [1]: 0.012 µM
- IC50 [2]: > 10 µM
- CLhep predicted [4]: 13 mL/min/kg
- CLhep predicted [5]: 67 mL/min/kg
- Papp [6]: 20 ×10⁻⁶ cm/s
- IC50 [3]: 0.34 µM

Compound: CCN(CC)C(=O)[C@@]1(c2nc3ccccc3s2)C[C@H]1CN
- IC50 [1]: 2.2 µM
- IC50 [2]: > 10 µM
- IC50 [3]: 9.6 µM

Compound: CCN(CC)C(=O)[C@@]1(c2cc3cc(F)ccc3s2)C[C@H]1CN
- IC50 [1]: 0.15 µM
- IC50 [2]: > 10 µM
- IC50 [3]: 0.29 µM

Compound: CCN(CC)C(=O)[C@@]1(c2ccccn2)C[C@H]1CN
- IC50 [1]: 1.5 µM
- IC50 [2]: > 10 µM
- IC50 [3]: 3.5 µM

Compound: NC[C@@H]1C[C@@]1(C(=O)N1C=CCCC1)c1ccsc1
- IC50 [1]: 0.2 µM
- IC50 [2]: > 10 µM
- IC50 [3]: 1.8 µM

Compound: CCN(CC)C(=O)[C@@]1(c2ccc(Br)s2)C[C@H]1CN
- IC50 [1]: 0.029 µM
- IC50 [2]: 6.3 µM
- IC50 [3]: 0.35 µM

Compound: C#CCN(CC#C)C(=O)[C@@]1(c2ccsc2)C[C@H]1CN
- IC50 [1]: 0.0082 µM
- IC50 [2]: > 10 µM
- CLhep predicted [4]: < 2.6 mL/min/kg
- CLhep predicted [5]: 42 mL/min/kg
- Papp [6]: 16.4 ×10⁻⁶ cm/s
- IC50 [3]: 0.084 µM

Compound: COCCN(C)C(=O)[C@@]1(c2ccsc2)C[C@H]1CN
- IC50 [1]: 1.1 µM
- IC50 [2]: > 10 µM
- IC50 [3]: 0.59 µM

Compound: C=CCN(CC=C)C(=O)[C@@]1(c2ccsc2)C[C@H]1CN
- IC50 [1]: 0.0027 µM
- IC50 [2]: 8.3 µM
- CLhep predicted [4]: 4.7 mL/min/kg
- CLhep predicted [5]: 59 mL/min/kg
- Papp [6]: 9.5 ×10⁻⁶ cm/s
- IC50 [3]: 0.076 µM

Compound: CCN(CC)C(=O)[C@]1(c2ccccc2)C[C@@H]1CN
- CLhep predicted [4]: < 2.6 mL/min/kg
- CLhep predicted [5]: 18 mL/min/kg

Compound: CCN(CC)C(=O)[C@@]1(c2cc(Cl)c(Cl)s2)C[C@H]1CN
- IC50 [1]: 0.56 µM
- IC50 [2]: > 10 µM
- IC50 [3]: 2.2 µM

Compound: CCN(CC)C(=O)[C@@]1(c2ccccc2)C[C@H]1CN [LEVOMILNACIPRAN]
- CLhep predicted [5]: 24 mL/min/kg
- Cmax [7]: 232 ng/mL
- Tmax [8]: 18 min
- AUC [9]: 566 ng·h/mL
- concentration at 1 h [10]: 103 ng/g
- concentration at 4 h [11]: 55 ng/g
- Kp at 1 h [12]: 0.42
- Kp at 4 h [13]: 0.86
- pKa [14]: 9.6

Compound: C#CCN(CC=C)C(=O)[C@@]1(c2ccsc2)C[C@H]1CN
- IC50 [1]: 0.0028 µM
- IC50 [2]: > 10 µM
- CLhep predicted [4]: < 2.6 mL/min/kg
- CLhep predicted [5]: 44 mL/min/kg
- Papp [6]: 9.6 ×10⁻⁶ cm/s
- IC50 [3]: 0.071 µM

Compound: CCN(CC)C(=O)[C@@]1(c2ccsc2)C[C@H]1CNC
- IC50 [1]: 3.7 µM
- IC50 [2]: > 10 µM

Compound: NC[C@@H]1C[C@@]1(C(=O)N1CCCc2ccccc21)c1ccsc1
- IC50 [1]: 0.02 µM
- IC50 [2]: > 10 µM
- IC50 [3]: 0.42 µM

Compound: C=C(F)CN(C)C(=O)[C@@]1(c2ccsc2)C[C@H]1CN
- IC50 [1]: 0.044 µM
- IC50 [2]: > 10 µM
- CLhep predicted [4]: < 2.6 mL/min/kg
- CLhep predicted [5]: 32 mL/min/kg
- Papp [6]: 13.8 ×10⁻⁶ cm/s
- IC50 [3]: 0.06 µM

Compound: CCN(CC)C(=O)[C@@]1(c2cc3ccccc3s2)C[C@H]1CN
- IC50 [1]: 0.065 µM
- IC50 [2]: 2.4 µM
- IC50 [3]: 0.62 µM

Compound: CCN(CC)C(=O)[C@@]1(c2ccc(Cl)s2)C[C@H]1CN
- IC50 [1]: 0.04 µM
- IC50 [2]: > 10 µM
- IC50 [3]: 0.52 µM

Compound: C=C(F)CN(CCOC)C(=O)[C@@]1(c2ccsc2)C[C@H]1CN
- IC50 [1]: 0.0039 µM
- IC50 [2]: > 10 µM
- CLhep predicted [4]: < 2.6 mL/min/kg
- CLhep predicted [5]: 54 mL/min/kg
- Papp [6]: 3.4 ×10⁻⁶ cm/s
- IC50 [3]: 0.04 µM

Compound: C=CCN(CC)C(=O)[C@@]1(c2ccsc2)C[C@H]1CN
- IC50 [1]: 0.0056 µM
- IC50 [2]: > 10 µM
- CLhep predicted [4]: 6.8 mL/min/kg
- CLhep predicted [5]: 57 mL/min/kg
- Papp [6]: 6.4 ×10⁻⁶ cm/s
- Cmax [15]: 201 ng/mL
- Tmax [16]: 30 min
- AUC [17]: 502 ng·h/mL
- concentration at 1 h [18]: 39 ng/g
- concentration at 4 h [19]: 15 ng/g
- Kp at 1 h [20]: 0.3
- Kp at 4 h [21]: 0.4
- logP [22]: 1.5
- pKa [14]: 9.5
- logD [23]: 0.1
- IC50 [3]: 0.14 µM

Compound: CCN(CC)C(=O)[C@@]1(c2csc3ccccc23)C[C@H]1CN
- IC50 [1]: 0.17 µM
- IC50 [2]: > 10 µM
- IC50 [3]: 3.1 µM

Compound: C#CCN(CCOC)C(=O)[C@@]1(c2ccsc2)C[C@H]1CN
- IC50 [1]: 0.064 µM
- IC50 [2]: > 10 µM
- CLhep predicted [4]: < 2.6 mL/min/kg
- CLhep predicted [5]: 18 mL/min/kg
- Papp [6]: 3.2 ×10⁻⁶ cm/s
- IC50 [3]: 0.047 µM

Compound: CCN(CC)C(=O)[C@@]1(c2sc(Cl)c(Cl)c2Cl)C[C@H]1CN
- IC50 [1]: 0.27 µM
- IC50 [2]: > 10 µM
- IC50 [3]: 2 µM

Compound: C=CCN(CCOC)C(=O)[C@@]1(c2ccsc2)C[C@H]1CN
- IC50 [1]: 0.02 µM
- IC50 [2]: > 10 µM
- CLhep predicted [4]: < 2.6 mL/min/kg
- CLhep predicted [5]: 52 mL/min/kg
- Papp [6]: 2.4 ×10⁻⁶ cm/s
- IC50 [3]: 0.047 µM

Compound: NC[C@@H]1C[C@@]1(C(=O)N1CCc2ccccc2C1)c1ccsc1
- IC50 [1]: 0.0083 µM
- IC50 [2]: > 10 µM
- IC50 [3]: 0.32 µM

Compound: CCN(CC)C(=O)[C@@]1(c2cccnc2)C[C@H]1CN
- IC50 [1]: 1.5 µM
- IC50 [2]: > 10 µM
- IC50 [3]: 4 µM

Compound: CCN(CC)C(=O)[C@@]1(c2cccs2)C[C@H]1CN
- IC50 [1]: 0.076 µM
- IC50 [2]: > 10 µM
- IC50 [3]: 0.52 µM

Compound: CCN(CC)C(=O)[C@@]1(c2ccsc2)C[C@H]1CN
- IC50 [1]: 0.049 µM
- IC50 [2]: > 10 µM
- CLhep predicted [4]: 7.1 mL/min/kg
- CLhep predicted [5]: 34 mL/min/kg
- Papp [6]: 4.7 ×10⁻⁶ cm/s
- IC50 [3]: 0.83 µM

Compound: NC[C@@H]1C[C@@]1(C(=O)N1Cc2ccccc2C1)c1ccsc1
- IC50 [1]: 0.037 µM
- IC50 [2]: 6.9 µM
- CLhep predicted [4]: 10 mL/min/kg
- CLhep predicted [5]: 66 mL/min/kg
- Papp [6]: 4.7 ×10⁻⁶ cm/s

Compound: CCN(CC)C(=O)[C@@]1(c2ccsc2)C[C@H]1CN(C)C
- IC50 [1]: > 10 µM
- IC50 [2]: > 10 µM
- IC50 [3]: > 10 µM

Compound: C=CCN(C(=O)[C@@]1(c2ccsc2)C[C@H]1CN)C1CC1
- IC50 [1]: 0.0087 µM
- IC50 [2]: > 10 µM
- CLhep predicted [4]: < 2.6 mL/min/kg
- CLhep predicted [5]: 42 mL/min/kg
- Papp [6]: 5.3 ×10⁻⁶ cm/s
- IC50 [3]: 0.026 µM

Compound: C#CCN(C)C(=O)[C@@]1(c2ccsc2)C[C@H]1CN
- IC50 [1]: 0.11 µM
- IC50 [2]: > 10 µM
- IC50 [3]: 0.034 µM
